Test results: publication PMC11284788, “NN1213 – A Potent, Long-Acting, and Selective Analog of Human Amylin” (Journal of Medicinal Chemistry, 2024)
Values after ≈ are worked out from the molar mass of the structure shown. Where two headings read alike, the source gives them in different places. Numbered stars: 1 amine (or outer) side, 2 acyl side, 3 side chain; on linkers, the order of the positions; unused ones are H or OH. Bridge positions count the residues as written; N and C are the ends. Side chains are listed from the residue outwards. Peptide text beside a SMILES is read from it. * marks the point of attachment. C20 diacid = O=C(O)CCCCCCCCCCCCCCCCCCC(=O)*; γGlu = O=C(O)[C@H](CCC(=O)[*:2])N[*:1]

Experiments:
[1] = ThT assay: fibril formation propensity and peptide recovery; format: physicochemical; conditions: for ThT, pH 7.5 lag-time: 250 μM peptide, 10 mM HEPES pH 7.5, 1 μM ThT, 37 °C, 960 rpm, 45 h, lowest of four replicas, average of experiments; for recovery: pH 7.5, residual dissolved peptide after 45 h of shaking, centrifugation and 0.22 μm filtration, HPLC, relative to amount before stress
Method: The stability properties of the individual amylin analogs were assessed with respect to their propensity toward fibril formation, expressed as the time until fibril formation (measured as Lag time) and loss of dissolved peptide (assessed as Peptide Recovery). […] Samples were prepared as described previously (using the same methodology and materials) for a novel amylin-based analog candidate compound.[7]
Briefly, each compound was dissolved in 10 mM of glycylglycine buffer (pH 4.0) or HEPES buffer (pH 7.5) to a concentration of 250 μM, followed by ThT stock solution to a final concentration of 1 μM. Each solution was aliquoted into a microtiter plate (200 μL/well) sealed with a transparent adhesive sheet. Mechanical stress was applied at 37 °C incubation (960 rpm, 1 mm amplitude) with 20 min fluorescence reading intervals for 45 h (filters: excitation 444 nm; emission 485 nm). Each peptide was tested in experiments consisting of four replicas (e.g., four wells on the same plate), and the lag time of each replica was determined by visual inspection of the fluorescence-versus-time plot. For wells where no fibril formation could be detected, the lag time was set longer than the test period (>45 h). The lag time of the peptide was set to the lowest lag time of the four replicates (conservative estimate). Some of the peptides were tested in more than one experiment, and the lag time results given in Tables 6 and 9 represent the average of these experiments. The ThT time course data given in Supporting Information represent the average and SEM of each experiment.[40] After analysis, wells representing individual replicas were pooled, and the residual soluble peptide was isolated using centrifugation (20,000 g/30 min at room temperature) followed by […] filtration. The amount of residual dissolved peptide was determined using an HPLC with a flow rate of 2 mL/min at 30 °C and 215/276 nm detection. A gradient combining eluent A (7.7% w/w acetonitrile, 200 mM Na2SO4, 20 mM NaH2PO4, 20 mM Na2HPO4, pH 7.2) and eluent B (65.5% w/w acetonitrile) was applied. The amount of residual dissolved peptide was reported on a relative scale (Peptide Recovery) to the amount of dissolved peptide prior to mechanical stress.

[2] = target: T1, hAMY3R (Homo sapiens, UniProt O60896+P30988); assay: cAMP-responsive element luciferase reporter assay, human AMY3R; format: cell-based; design: expressed in transfected cells; conditions: for EC50: luciferase (human receptor assay); for ratio hCTR/hAMY3R: ratio of luciferase EC50 values
T1 sequence (P30988 25-474): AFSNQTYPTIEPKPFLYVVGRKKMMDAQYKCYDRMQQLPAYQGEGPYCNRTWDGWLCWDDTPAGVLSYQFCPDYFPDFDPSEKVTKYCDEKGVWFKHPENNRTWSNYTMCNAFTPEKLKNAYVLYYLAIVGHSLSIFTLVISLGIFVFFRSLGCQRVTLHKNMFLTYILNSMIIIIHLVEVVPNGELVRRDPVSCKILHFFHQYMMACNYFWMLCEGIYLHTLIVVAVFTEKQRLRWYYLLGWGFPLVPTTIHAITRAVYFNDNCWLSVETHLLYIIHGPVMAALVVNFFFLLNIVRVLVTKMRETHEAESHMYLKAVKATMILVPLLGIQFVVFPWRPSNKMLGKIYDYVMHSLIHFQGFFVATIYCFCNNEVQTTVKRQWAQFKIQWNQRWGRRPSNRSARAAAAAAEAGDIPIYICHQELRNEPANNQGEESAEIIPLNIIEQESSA
T1 sequence (O60896 24-148 partner): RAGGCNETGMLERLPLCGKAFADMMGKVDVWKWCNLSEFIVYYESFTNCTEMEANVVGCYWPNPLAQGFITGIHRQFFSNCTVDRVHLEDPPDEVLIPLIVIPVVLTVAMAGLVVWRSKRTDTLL

[3] = Solubility versus pH profile
[4] = target: T2, hCTR (Homo sapiens, UniProt P30988); assay: cAMP-responsive element luciferase reporter assay, human CTR; format: cell-based; conditions: luciferase (human receptor assay)
T2 sequence (P30988 25-474): T1 sequence (P30988 25-474)

[5] = HMWP content by size-exclusion chromatography; format: physicochemical; conditions: analogs 1–9 (pH 7.5 series); covalent dimers and polymers prior to fibril formation testing, SEC, % of total absorbance area at 215 nm
Method: The stability properties of the individual amylin analogs were assessed with respect to their propensity toward amyloid fibril formation. The relative amount of covalent dimers and polymers (HMWP) present prior to fibril formation testing was measured as a control for the potential inhibitory effect of HMWP on fibril formation propensity as reported elsewhere.[39]
Elution was performed under isocratic conditions with the following mobile phase prepared in Milli-Q water (Millipore A/S): 0.5 M NaCl, 10 mM sodium dihydrogen monohydrate, 5 mM ortho-phosphoric acid, 50% (v/v) 2-propanol. The amount of HMWP was determined as the absorbance area of the corresponding peaks given in percentage of the total absorbance area. The molar extinction coefficients of the molecules eluting in the HMWP fraction and the main peak was assumed to be equal.

[6] = Tables S12 and S14, read-out: hAMY3R pEC50 (converted)
[7] = BHK cells stably expressing hCTR+RAMP3 and CRE-luciferase, 3 h, 37 °C, 10% FBS, read-out: hAMY3R EC50
[8] = Tables S12 and S14, read-out: hCTR pEC50 (converted)
[9] = BHK cells stably expressing hCTR and CRE-luciferase, 3 h, 37 °C, 10% FBS, read-out: hCTR EC50

ThT, pH 7.5 lag-time [1] [h]	recovery [1] [%]	EC50 [2, 6] [nM]	EC50 [2, 7] [nM]	ratio hCTR/hAMY3R [2]	solubility kinetic ([3]; bis-tris-propane buffer, pH 6, aqueous buffer) [µM]	solubility kinetic ([3]; bis-tris-propane buffer, pH 6.5, aqueous buffer) [µM]	solubility kinetic ([3]; bis-tris-propane buffer, pH 7, aqueous buffer) [µM]	solubility kinetic ([3]; bis-tris-propane buffer, pH 7.5, aqueous buffer) [µM]	solubility kinetic ([3]; bis-tris-propane buffer, pH 8, aqueous buffer) [µM]	solubility kinetic ([3]; lactate buffer, pH 4, aqueous buffer) [µM]	solubility kinetic ([3]; lactate buffer, pH 5, aqueous buffer) [µM]	EC50 [4, 8] [nM]	EC50 [4, 9] [nM]	HMWP [5] [%]	Structure (SMILES)
0	0	1.55	1.54	0.9	≥ 200	75 (≈ 330 µg/mL)	7 (≈ 30.8 µg/mL)	7 (≈ 30.8 µg/mL)	15 (≈ 65.9 µg/mL)	≥ 200	≥ 200	1.38	1.37		CC(C)C[C@H](NC(=O)[C@H](CCCNC(=N)N)NC(=O)[C@H](CCC(N)=O)NC(=O)[C@@H](NC(=O)[C@H](C)NC(=O)[C@@H]1CSSC[C@H](NC(=O)[C@@H](N)CCCCNC(=O)CC[C@H](NC(=O)CCCCCCCCCCCCCCCCCCC(=O)O)C(=O)O)C(=O)N[C@@H](CC(N)=O)C(=O)N[C@@H]([C@@H](C)O)C(=O)N[C@@H](C)C(=O)N[C@@H]([C@@H](C)O)C(=O)N1)[C@@H](C)O)C(=O)N[C@@H](C)C(=O)N[C@@H](CC(=O)O)C(=O)N[C@@H](Cc1ccccc1)C(=O)N[C@@H](CC(C)C)C(=O)N[C@@H](CCCNC(=N)N)C(=O)N[C@@H](Cc1c[nH]cn1)C(=O)N[C@@H](CO)C(=O)N[C@@H](CO)C(=O)N[C@@H](CCC(N)=O)C(=O)N[C@@H](CC(N)=O)C(=O)N[C@@H](Cc1ccccc1)C(=O)NCC(=O)N[C@@H](C)C(=O)N1CCC[C@H]1C(=O)N[C@@H](CC(C)C)C(=O)N[C@@H](CO)C(=O)N[C@@H](CO)C(=O)N[C@H](C(=O)N[C@@H](CC(N)=O)C(=O)N[C@H](C(=O)NCC(=O)N[C@@H](CO)C(=O)N1CCC[C@H]1C(=O)N[C@H](C(=O)N[C@@H](Cc1ccc(O)cc1)C(N)=O)[C@@H](C)O)C(C)C)[C@@H](C)O [Peptide 2] (H-K([γGlu-C20 diacid])CNTATCATQRLADFLRHSSQNFGAPLSSTNVGSPTY-NH2; disulfide 2-7)
>45	100	0.389	0.39	5.6								2.19	2.19	2.5	CC[C@H](C)[C@H](NC(=O)[C@H](C)NC(=O)CNC(=O)[C@H](Cc1ccccc1)NC(=O)[C@@H]1CCCN1C(=O)[C@H](CC(N)=O)NC(=O)[C@H](CO)NC(=O)[C@H](CO)NC(=O)[C@H](Cc1c[nH]cn1)NC(=O)[C@H](CCCNC(=N)N)NC(=O)[C@H](CC(C)C)NC(=O)[C@H](Cc1ccccc1)NC(=O)[C@H](CC(=O)O)NC(=O)[C@H](C)NC(=O)[C@H](CC(C)C)NC(=O)[C@H](CCCNC(=N)N)NC(=O)[C@H](CCC(N)=O)NC(=O)[C@@H](NC(=O)[C@H](C)NC(=O)[C@@H]1CSSC[C@H](NC(=O)[C@@H](N)CCCCNC(=O)CC[C@H](NC(=O)CC[C@H](NC(=O)CCCCCCCCCCCCCCCCCCC(=O)O)C(=O)O)C(=O)O)C(=O)N[C@@H](CC(N)=O)C(=O)N[C@@H]([C@@H](C)O)C(=O)N[C@@H](C)C(=O)N[C@@H]([C@@H](C)O)C(=O)N1)[C@@H](C)O)C(=O)N1CCC[C@H]1C(=O)N[C@@H](CO)C(=O)N[C@@H](CO)C(=O)N[C@H](C(=O)N[C@@H](CC(N)=O)C(=O)N[C@H](C(=O)NCC(=O)N[C@@H](CO)C(=O)N[C@@H](CC(=O)O)C(=O)N[C@H](C(=O)N[C@@H](Cc1ccc(O)cc1)C(N)=O)[C@@H](C)O)C(C)C)[C@@H](C)O [Peptide 8] (H-K([γGlu-γGlu-C20 diacid])CNTATCATQRLADFLRHSSNPFGAIPSSTNVGSDTY-NH2; disulfide 2-7)
>45	100	1.07	1.06	7.8								8.32	8.31	6	CC[C@H](C)[C@H](NC(=O)[C@@H]1CCCN1C(=O)CNC(=O)[C@H](Cc1ccccc1)NC(=O)[C@H](CC(N)=O)NC(=O)[C@H](CCC(=O)O)NC(=O)[C@H](CO)NC(=O)[C@H](CO)NC(=O)[C@H](Cc1c[nH]cn1)NC(=O)[C@H](CCCNC(=N)N)NC(=O)[C@H](CC(C)C)NC(=O)[C@H](Cc1ccccc1)NC(=O)[C@H](CC(=O)O)NC(=O)[C@H](C)NC(=O)[C@H](CC(C)C)NC(=O)[C@H](CCCNC(=N)N)NC(=O)[C@H](CCC(N)=O)NC(=O)[C@@H](NC(=O)[C@H](C)NC(=O)[C@@H]1CSSC[C@H](NC(=O)[C@@H](N)CCCCNC(=O)CC[C@H](NC(=O)CC[C@H](NC(=O)CCCCCCCCCCCCCCCCCCC(=O)O)C(=O)O)C(=O)O)C(=O)N[C@@H](CC(N)=O)C(=O)N[C@@H]([C@@H](C)O)C(=O)N[C@@H](C)C(=O)N[C@@H]([C@@H](C)O)C(=O)N1)[C@@H](C)O)C(=O)N[C@@H](CC(C)C)C(=O)N[C@@H](CO)C(=O)N[C@@H](CO)C(=O)N[C@H](C(=O)N1CCC[C@H]1C(=O)N[C@H](C(=O)NCC(=O)N[C@@H](CO)C(=O)N[C@@H](CC(=O)O)C(=O)N[C@H](C(=O)N[C@@H](Cc1ccc(O)cc1)C(N)=O)[C@@H](C)O)C(C)C)[C@@H](C)O [Peptide 9] (H-K([γGlu-γGlu-C20 diacid])CNTATCATQRLADFLRHSSENFGPILSSTPVGSDTY-NH2; disulfide 2-7)
